Data from US20230028441A1, “NOVEL HETEROARYL-TRIAZOLE COMPOUNDS AS PESTICIDES” (Bayer Aktiengesellschaft, priority 2019, published 2023).

Assays:
Type in all cases: in vivo
[1] = tested on: adult engorged female ticks (Rhipicephalus microplus); experiment: Rhipicephalus (Boophilus) microplus injection test; conditions: 168 h, egg deposition after 7 days, read-out: efficacy (infertile eggs); for pest or weed control at 0.02 mg: 20 μg/animal; for pest or weed control at 0.004 mg: 4 μg/animal
How it was run: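 Compound was dissolved in DMSO at 10 mg per 0.5 mL and diluted with DMSO to the test concentration. Five engorged adult females received a 1 μL abdominal injection and were kept in a climate chamber. After 7 days, fertile egg deposition was scored, with unclear eggs held until hatching at about 42 days; 100% efficacy means all eggs were infertile.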

[2] = tested on: adult unfed cat fleas (Ctenocephalides felis); experiment: Ctenocephalides felis oral test; conditions: 48 h, 100 ppm in cattle blood, after 2 days
How it was run: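 About 20 adult unfed Ctenocephalides felis fed through parafilm on cattle blood dosed with compound (DMSO stock diluted in blood), blood chamber at 37°C, fleas at room temperature. Mortality (%) scored after 2 days; 100% means all fleas killed.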

[3] = tested on: southern root-knot nematode (Meloidogyne incognita); experiment: Meloidogyne incognita test; conditions: 336 h, after 14 days, read-out: nematicidal activity (gall formation)
Experimental: Solvent: 125.0 parts by weight of acetone
To produce a suitable preparation of active compound, 1 part by weight of active compound is mixed with the stated amount of solvent, and the concentrate is diluted with water to the desired concentration.
Vessels are filled with sand, a solution of the active ingredient, a suspension containing eggs and larvae of the southern root-knot nematode (Meloidogyne incognita) and salad seeds. The salad seeds germinate and the seedlings grow. Galls develop in the roots.
After 14 days the nematicidal activity is determined on the basis of the percentage of gall formation. 100% means no galls were found and 0% means the number of galls found on the roots of the treated plants was equal to that in untreated control plants.

[4] = tested on: green peach aphid (Myzus persicae); experiment: Myzus persicae oral test; conditions: 120 h
How it was run: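 Acetone stock (1 pbw compound/100 pbw solvent) diluted in water; mixed with sugar-supplemented IPL41 medium; parafilm-sealed; mixed aphid population sucks through film; mortality % read at 5 d.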

[5] = tested on: cattle tick larvae (Rhipicephalus microplus), strain Parkhurst, resistant against synthetic pyrethroids; experiment: Rhipicephalus (Boophilus) microplus in-vitro contact test, larval cattle tick; conditions: 5 μg/cm^2 (=500 g/ha), after 48 hours, read-out: efficacy (larvae dead or moribund)
How it was run: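 Acetone solutions of compound were coated on glass tube walls (900 ppm giving 5 μg/cm^2) and dried. 20–50 pyrethroid-resistant Parkhurst larvae were held per tube at 27° C and 85% relative humidity; after 48 h negative geotaxis scored efficacy as percent larvae dead or moribund.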

[6] = tested on: larvae of the banded cucumber beetle (Diabrotica balteata); experiment: Diabrotica balteata spray test; conditions: 168 h, after 7 days, wheat seeds, read-out: efficacy (seedlings grown up); for pest or weed control at 32 µg/disc, 100 g/ha: 100 g/ha (=32 μg/well); for pest or weed control at 160 µg/disc, 500 g/ha: 500 g/ha (=160 μg/well)
How it was run: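 Germinated wheat seedlings (5 per well, agar plates) sprayed with compound in acetone/DMF diluted in water with 1000 ppm emulsifier, then infested with 10-20 larvae per unit. Efficacy scored after 7 days as % seedling growth relative to untreated, uninfested control (100% = normal growth, 0% = none).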

[7] = tested on: fall armyworm larvae (Spodoptera frugiperda); experiment: Spodoptera frugiperda spray test (maize leaf sections); conditions: 168 h
How it was run: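 Maize leaf sections were sprayed with compound formulated in acetone/DMF and diluted in water containing 1000 ppm emulsifier. Once dry, sections were infested with fall armyworm larvae. Mortality (%) was scored after 7 days.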

[8] = tested on: adult cat fleas (Ctenocephalides felis); experiment: Ctenocephalides felis in-vitro contact test, adult cat flea; conditions: 5 μg/cm^2 (=500 g/ha), after 48 hours, read-out: efficacy (fleas dead or moribund)
How it was run: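 Acetone solutions were coated on glass tube walls, 900 ppm giving 5 μg/cm^2. After drying, 5-10 adult fleas per tube were held 48 h at room temperature. Fleas unable to climb away from a 45-50 °C heating plate within 5 min were scored dead or moribund, as % efficacy.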

[9] = tested on: larvae of the southern green stink bug (Nezara viridula); experiment: Nezara viridula spray test; conditions: in Hordeum vulgare, 96 h
How it was run: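 Barley plants infested with Nezara viridula larvae were sprayed with compound in acetone/dimethylformamide, diluted in water containing 1000 ppm alkylarylpolyglycol ether emulsifier. Mortality (%) was scored after 4 days; 100% means all stink bugs killed.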

[10] = tested on: adult brown dog ticks (Rhipicephalus sanguineus); experiment: Rhipicephalus sanguineus in-vitro contact test with adult brown dog ticks; conditions: after 48 hours, read-out: efficacy (ticks dead or moribund); for pest or weed control at 1 µg/cm2, 100 g/ha: 1 μg/cm^2 (=100 g/ha); for pest or weed control at 5 µg/cm2, 500 g/ha: 5 μg/cm^2 (=500 g/ha)
How it was run: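 Compound in acetone coated onto glass tube inner walls at 900 ppm, giving 5 μg/cm^2. Adult ticks (5-10 per tube) held at room temperature for 48 h, then placed on a 45-50° C. heating plate for up to 5 min. Ticks unable to climb away counted dead or moribund; efficacy given as % dead/moribund.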

[11] = tested on: green peach aphid (Myzus persicae); experiment: Myzus persicae spray test; conditions: foliar, 120 h, 100 g/ha, after 5 days, Chinese cabbage leaf disks
How it was run: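 Chinese cabbage leaf disks carrying all instars of Myzus persicae were sprayed with compound. The formulation was acetone/dimethylformamide diluted in water with 1000 ppm alkylarylpolyglycol ether emulsifier. Percent mortality was scored after 5 days, with 100% meaning all aphids killed.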

[12] = tested on: brown planthopper (Nilaparvata lugens); experiment: Nilaparvata lugens spray test; conditions: in Oryza sativa, 96 h
How it was run: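 Rice plants (Oryza sativa) sprayed with compound in acetone/DMF diluted in water containing 1000 ppm alkylarylpolyglycol ether emulsifier, then infested with planthoppers. Mortality % scored after 4 days (100% = all killed, 0% = none killed).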

[13] = tested on: caterpillars of the fall army worm (Spodoptera frugiperda); experiment: Spodoptera frugiperda spray test (cotton leaves); conditions: 168 h
How it was run: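 Cotton leaves sprayed with compound in water/DMF with 1000 ppm alkylaryl polyglycol ether emulsifier, ammonium salt and/or penetration enhancer at 1000 ppm added if necessary, then infested with fall armyworm caterpillars. Mortality in % scored after 7 days; 100% means all caterpillars killed.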

| SMILES | pest or weed control at 0.02 mg [1] | mortality at 100 ppm [2] | pest or weed control at 20 ppm [3] | mortality at 4 ppm [4] | pest or weed control at 0.004 mg [1] | pest or weed control at 5 µg/cm2 [5] | pest or weed control at 32 µg/disc, 100 g/ha [6] | mortality at 100 g/ha [7] | pest or weed control at 5 µg/cm2 [8] | mortality at 500 g/ha [9] | pest or weed control at 1 µg/cm2, 100 g/ha [10] | pest or weed control at 5 µg/cm2, 500 g/ha [10] | mortality at 100 g/ha [11] | mortality at 500 g/ha [12] | mortality at 20 ppm [13] | pest or weed control at 160 µg/disc, 500 g/ha [6] | mortality at 100 g/ha [9] | mortality at 500 g/ha [7] |
| --- | --- | --- | --- | --- | --- | --- | --- | --- | --- | --- | --- | --- | --- | --- | --- | --- | --- | --- |
| CC(NC(=O)c1cc(Cl)cc(Cl)c1)c1nc(-c2ncccn2)nn1-c1ncccn1 (stereo not shown) [I-054] | 100% | 100% | 90% | 90% |  |  |  |  |  |  |  |  |  |  |  |  |  |  |
| CC(NC(=O)c1cc(Cl)cc(S(C)(=O)=O)c1)c1nc([S+]([O-])CC(F)(F)F)nn1-c1ccc(Cl)cn1 (stereo not shown) [I-066] | 100% | 100% | 90% |  | 100% |  |  |  |  |  |  |  |  |  |  |  |  |  |
| CC(NC(=O)c1cc(Cl)cc(C(F)(F)F)c1)c1nc(C(=O)NC2CC2)nn1-c1ccc(C#N)cn1 (stereo not shown) [I-078] | 100% | 100% | 90% | 90% | 100% | 90% | 100% | 100% |  |  |  |  |  |  |  |  |  |  |
| C[C@H](NC(=O)c1cc(C(F)(F)F)cc(C(F)(F)F)c1)c1nc(N2CCOCC2)nn1-c1ncccn1 [I-145, N-[(1S)-1-(5-morpholino-2-pyrimidin-2-yl-1,2,4-triazol-3-yl)ethyl]-3,5-bis(trifluoromethyl)benzamide] |  |  | 100% |  |  | 100% | 100% | 100% | 80% | 100% |  |  |  |  |  |  |  |  |
| CNc1nc([C@H](C)NC(=O)c2cc(Cl)cc(OC(F)(F)F)c2)n(-c2ncccn2)n1 [I-129] |  |  |  |  |  | 100% | 100% | 100% | 100% | 100% | 80% | 80% | 90% | 90% | 100% |  |  |  |
| C[C@H](NC(=O)c1cc(Br)cc(Br)c1)c1nc(N2CCOCC2)nn1-c1ncccn1 [I-144] |  |  | 90% |  |  | 100% | 100% |  | 90% |  |  |  |  |  |  |  |  |  |
| C[C@H](NC(=O)c1cc(Br)cc(Br)c1)c1nc(N(C)C)nn1-c1ncccn1 [I-140] |  |  |  |  |  | 100% | 100% | 100% | 100% | 90% | 100% | 100% | 90% | 90% | 100% |  |  |  |
| C[C@H](NC(=O)c1cc(OC(F)(F)F)cc(C2CC2)c1)c1nc(N2CCOCC2)nn1-c1ncccn1 [I-146] |  |  | 100% |  |  | 90% | 100% | 100% |  | 100% |  |  |  |  |  |  |  |  |
| C=CC(=O)Nc1nc(C(C)NC(=O)c2cc(Cl)cc(C(F)(F)F)c2)n(-c2ccc(Cl)cn2)n1 (stereo not shown) [I-123] |  |  | 90% |  |  | 90% | 100% | 100% | 100% | 100% |  |  |  |  |  |  |  |  |
| CC(NC(=O)c1cc(Cl)cc(C(F)(F)F)c1)c1nc(-c2ncccn2)nn1-c1ncccn1 (stereo not shown) [I-055] | 100% | 100% | 90% |  |  |  |  |  |  | 100% |  |  |  |  |  | 100% | 100% |  |
| C[C@H](NC(=O)c1cc(Cl)cc(C(C)(C)C#N)c1)c1nc(N)nn1-c1ccc(C#N)cn1 [I-155] |  |  |  |  |  | 100% | 100% | 100% | 100% | 100% | 100% | 100% | 100% | 100% | 100% |  |  |  |
| C[C@H](NC(=O)c1cc(Br)cc(OC(F)(F)F)c1)c1nc(N2CCOCC2)nn1-c1ncccn1 [I-147] |  |  | 100% |  |  | 100% | 100% |  |  |  |  |  |  |  |  |  |  |  |
| CC(NC(=O)c1cc(Cl)cc(OC(F)(F)F)c1)c1nc(-c2ncccn2)nn1-c1ncccn1 (stereo not shown) [I-051] | 100% | 100% | 100% | 100% | 100% |  |  |  |  | 100% |  |  |  |  |  | 100% | 100% | 100% |
